# Earlier results, collected in article PMC12238723, “Phase I Clinical Trial of CVL218, a Novel PARP1/2 Inhibitor, in Patients with Advanced Solid Tumors” (MedComm, 2025).
# Experiments:
# [1] = design: method as in PMID 37806255; conditions: recommended dose of 300 mg BID; cited from earlier work
# [2] = tested on: patients; conditions: cited from earlier work
SMILES,median Tmax [1],incidence of MDS/AML [2],incidence of anemia [2],increased risk of MDS/AML compared with placebo [2],occurrence of grade ≥3 anemia [2],overall incidence of grade ≥3 AEs [2],rate of dose reduction due to AEs [2],treatment discontinuation rates [2],"grade ≥3 gastrointestinal AEs ([2]; comparison value, no reference given)",grade ≥3 anemia incidence [2]
"O=C(c1cc(Cc2n[nH]c(=O)c3ccccc23)ccc1F)N1CCN(C(=O)C2CC2)CC1 [olaparib, Olaparib]",1.5 h,approximately 1%,21 to 46%,158%,5.1–22%,36–40%,25–29%,6–17%,4.3%,–
NC(=O)c1cccc2cn(-c3ccc([C@@H]4CCCNC4)cc3)nc12 [niraparib],–,–,–,48%,–,–,–,–,–,14.7–22.5%
